Experimental data as given in ChEMBL document CHEMBL4152377, “Design and Activity of Specific Hypoxia-Inducible Factor-2α (HIF-2α) Inhibitors for the Treatment of Clear Cell Renal Cell Carcinoma: Discovery of Clinical Candidate ( S)-3-((2,2-Difluoro-1-hydroxy-7-(methylsulfonyl)-2,3-dihydro-1 H-inden-4-yl)oxy)-5-fluorobenzonitrile (PT2385)” (J Med Chem, 2018).
Converted amounts (≈) assume the structure as drawn. The source made the active and inactive calls. The calls are words filed in the database; no cut-off is given here.

Tests used:
[1] = Oral bioavailability in Sprague-Dawley rat at 10 mg/kg administered via gavage by UPLC analysis; type: ADME, organism-based; conditions: in vivo
Mus musculus [2] = assay: Toxicity in SCID/Biege mouse xenografted with human 786-O cells assessed as effect on body weight at 10 mg/kg, po bid for 21 days; type: organism-based; conditions: in vivo, 504 h
[3] = Intrinsic clearance in monkey liver microsomes at 1 uM measured up to 30 mins by LC-MS/MS analysis; type: ADME, Macaca mulatta, microsome; conditions: rhesus monkey, read-out: CLH
Mus musculus [4] = assay: Minimum drug level in SCID/Biege mouse xenografted with human 786-O cells at 10 mg/kg, po bid for 3 days and measured after 12 hrs post last dose by LC-MS/MS analysis; type: ADME, organism-based; conditions: in vivo
[5] = Thermodynamic solubility of the compound in phosphate buffer at pH 7.4 after 24 hrs by HPLC-UV analysis; type: physicochemical; conditions: read-out: Therm_solubility
Mus musculus [6] = assay: In vivo inhibition of HIF-2alpha in SCID/Biege mouse xenografted with human 786-O cells assessed as reduction in VEGFA mRNA levels at 10 mg/kg, po bid for 3 days and measured after 12 hrs post last dose by qRT-PCR analysis; type: functional, organism-based
Mus musculus [7] = assay: Toxicity in SCID/Biege mouse xenografted with human 786-O cells assessed as mortality at 10 mg/kg, po bid for 21 days; type: organism-based; conditions: in vivo, 504 h
Cytochrome P450 2C8 = biological target: T1, Cytochrome P450 2C8 (Homo sapiens, UniProt P10632); assay: Inhibition of CYP2C8 in human liver microsomes using amodiaquine as substrate after 10 mins in presence of NADPH by LC-MS/MS analysis; type: ADME
T1 sequence (P10632 whole entry): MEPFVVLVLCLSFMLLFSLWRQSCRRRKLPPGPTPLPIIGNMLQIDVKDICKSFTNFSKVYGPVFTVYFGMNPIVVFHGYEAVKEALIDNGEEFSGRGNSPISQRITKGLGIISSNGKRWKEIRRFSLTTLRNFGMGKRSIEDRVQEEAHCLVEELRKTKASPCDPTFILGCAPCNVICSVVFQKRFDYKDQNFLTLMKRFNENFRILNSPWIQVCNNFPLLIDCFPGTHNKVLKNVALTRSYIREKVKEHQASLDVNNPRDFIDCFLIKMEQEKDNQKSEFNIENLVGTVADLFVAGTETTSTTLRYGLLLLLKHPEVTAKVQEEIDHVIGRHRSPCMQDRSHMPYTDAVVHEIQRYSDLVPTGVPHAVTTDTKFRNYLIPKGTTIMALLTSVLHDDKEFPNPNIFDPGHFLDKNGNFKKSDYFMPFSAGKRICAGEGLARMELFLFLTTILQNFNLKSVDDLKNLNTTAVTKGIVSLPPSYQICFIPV

[8] = Intrinsic clearance in human liver microsomes at 1 uM measured up to 30 mins by LC-MS/MS analysis; type: ADME, microsome; conditions: read-out: CLH
Cytochrome P450 3A4 = Cytochrome P450 3A4 (Homo sapiens, UniProt P08684); assay: Inhibition of CYP3A4 in human liver microsomes using midazolam as substrate after 10 mins in presence of NADPH by LC-MS/MS analysis; type: ADME
Cytochrome P450 2C9 = Cytochrome P450 2C9 (Homo sapiens, UniProt P11712); assay: Inhibition of CYP2C9 in human liver microsomes using diclofenac as substrate after 10 mins in presence of NADPH by LC-MS/MS analysis; type: ADME
[9] = Oral bioavailability in CD1 mouse at 10 mg/kg by UPLC analysis; type: ADME, organism-based; conditions: in vivo
[10] = Protein binding in mouse plasma at 10 uM after 4 hrs by LC-MS/MS analysis; type: ADME, cell-free; conditions: read-out: PPB (converted)
[11] = Apparent permeability across apical to basolateral side in MDCK-MDR1 cells at 1 uM after 1 hr by LC/MS/MS analysis; type: ADME, cell-based, Canis lupus familiaris; conditions: dog
[12] = AUCt in Sprague-Dawley rat at 10 mg/kg, po via gavage by UPLC analysis; type: ADME, organism-based; conditions: in vivo
[13] = Half life in Sprague-Dawley rat at 10 mg/kg, po via gavage by UPLC analysis; type: ADME, organism-based; conditions: in vivo
Cytochrome P450 2D6 = Cytochrome P450 2D6 (Homo sapiens, UniProt P10635); assay: Inhibition of CYP2D6 in human liver microsomes using dextromethorphan as substrate after 10 mins in presence of NADPH by LC-MS/MS analysis; type: ADME
Cytochrome P450 2B6 = biological target: T2, Cytochrome P450 2B6 (Homo sapiens, UniProt P20813); assay: Inhibition of CYP2B6 in human liver microsomes using bupropion as substrate after 10 mins in presence of NADPH by LC-MS/MS analysis; type: ADME
T2 sequence (P20813 whole entry): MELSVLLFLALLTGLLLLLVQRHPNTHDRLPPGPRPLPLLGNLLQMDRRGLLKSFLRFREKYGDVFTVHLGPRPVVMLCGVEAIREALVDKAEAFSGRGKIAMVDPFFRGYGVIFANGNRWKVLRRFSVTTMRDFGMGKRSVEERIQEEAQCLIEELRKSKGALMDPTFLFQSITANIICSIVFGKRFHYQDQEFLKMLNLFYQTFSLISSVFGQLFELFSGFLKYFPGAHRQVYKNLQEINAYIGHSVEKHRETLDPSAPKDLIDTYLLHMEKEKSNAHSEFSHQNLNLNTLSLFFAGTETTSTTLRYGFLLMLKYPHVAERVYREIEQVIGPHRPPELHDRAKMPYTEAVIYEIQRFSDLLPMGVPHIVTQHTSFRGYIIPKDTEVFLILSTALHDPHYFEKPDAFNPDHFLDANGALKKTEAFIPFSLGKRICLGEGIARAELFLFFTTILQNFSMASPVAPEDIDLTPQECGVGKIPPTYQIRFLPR

[14] = Volume of distribution at steady state in CD1 mouse at 3 mg/kg, iv by UPLC analysis; type: ADME, organism-based; conditions: in vivo, read-out: Vdss
Mus musculus [15] = assay: In vivo inhibition of HIF-2alpha in SCID/Biege mouse xenografted with human 786-O cells assessed as reduction in CCND1 mRNA levels at 10 mg/kg, po bid for 3 days and measured after 12 hrs post last dose by qRT-PCR analysis; type: functional, organism-based
Mus musculus [16] = assay: Toxicity in SCID/Biege mouse xenografted with human 786-O cells assessed as morbidity at 10 mg/kg, po bid for 21 days; type: organism-based; conditions: in vivo, 504 h
786-0 = assay: Antitumor activity against human 786-O cells xenografted in SCID/Biege mouse assessed as tumor regression at 10 mg/kg, po bid for 21 days; type: functional, organism-based
[17] = Intrinsic clearance in dog liver microsomes at 1 uM measured up to 30 mins by LC-MS/MS analysis; type: ADME, Canis lupus familiaris, microsome; conditions: read-out: CLH
[18] = Protein binding in human plasma at 10 uM after 4 hrs by LC-MS/MS analysis; type: ADME, cell-free; conditions: read-out: PPB (converted)
[19] = Intrinsic clearance in rat liver microsomes at 1 uM measured up to 30 mins by LC-MS/MS analysis; type: ADME, microsome; conditions: read-out: CLH
[20] = Protein binding in rat plasma at 10 uM after 4 hrs by LC-MS/MS analysis; type: ADME, cell-free; conditions: read-out: PPB (converted)
[21] = AUCt in CD1 mouse at 10 mg/kg, po by UPLC analysis; type: ADME, organism-based; conditions: in vivo
[22] = Clearance in CD1 mouse at 3 mg/kg, iv by UPLC analysis; type: ADME, organism-based; conditions: in vivo
[23] = Half life in CD1 mouse at 10 mg/kg, po by UPLC analysis; type: ADME, organism-based; conditions: in vivo
[24] = Protein binding in dog plasma at 10 uM after 4 hrs by LC-MS/MS analysis; type: ADME, cell-free, Canis lupus familiaris; conditions: read-out: PPB (converted)

Cytochrome P450 2D6, sequence (P10635 whole entry): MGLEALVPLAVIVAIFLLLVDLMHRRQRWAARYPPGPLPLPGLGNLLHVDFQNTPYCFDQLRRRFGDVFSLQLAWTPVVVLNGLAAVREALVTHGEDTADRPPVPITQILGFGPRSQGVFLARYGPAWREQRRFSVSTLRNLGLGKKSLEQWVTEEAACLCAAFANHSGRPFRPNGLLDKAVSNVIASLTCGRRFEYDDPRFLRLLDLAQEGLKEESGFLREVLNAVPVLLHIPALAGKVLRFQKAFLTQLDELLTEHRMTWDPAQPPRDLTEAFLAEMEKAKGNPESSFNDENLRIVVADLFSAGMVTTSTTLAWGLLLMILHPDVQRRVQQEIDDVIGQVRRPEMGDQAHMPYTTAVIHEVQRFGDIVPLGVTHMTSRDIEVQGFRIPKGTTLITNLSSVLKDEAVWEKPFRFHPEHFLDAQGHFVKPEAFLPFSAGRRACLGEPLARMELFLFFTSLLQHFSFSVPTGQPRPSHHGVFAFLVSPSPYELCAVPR
Cytochrome P450 2C9, sequence (P11712 whole entry): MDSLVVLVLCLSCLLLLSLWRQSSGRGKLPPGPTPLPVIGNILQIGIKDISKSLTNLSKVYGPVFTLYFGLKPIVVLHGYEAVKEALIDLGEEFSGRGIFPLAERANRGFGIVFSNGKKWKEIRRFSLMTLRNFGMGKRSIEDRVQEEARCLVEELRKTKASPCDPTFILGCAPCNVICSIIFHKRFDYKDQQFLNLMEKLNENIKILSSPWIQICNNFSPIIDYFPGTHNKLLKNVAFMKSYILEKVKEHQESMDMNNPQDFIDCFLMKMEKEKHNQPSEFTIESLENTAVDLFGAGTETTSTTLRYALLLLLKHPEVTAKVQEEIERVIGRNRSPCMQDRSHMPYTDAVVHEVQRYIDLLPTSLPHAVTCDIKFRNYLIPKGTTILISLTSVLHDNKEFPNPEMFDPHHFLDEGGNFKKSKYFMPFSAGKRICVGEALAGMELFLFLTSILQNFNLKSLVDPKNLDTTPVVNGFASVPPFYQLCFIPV
Cytochrome P450 3A4, sequence (P08684 whole entry): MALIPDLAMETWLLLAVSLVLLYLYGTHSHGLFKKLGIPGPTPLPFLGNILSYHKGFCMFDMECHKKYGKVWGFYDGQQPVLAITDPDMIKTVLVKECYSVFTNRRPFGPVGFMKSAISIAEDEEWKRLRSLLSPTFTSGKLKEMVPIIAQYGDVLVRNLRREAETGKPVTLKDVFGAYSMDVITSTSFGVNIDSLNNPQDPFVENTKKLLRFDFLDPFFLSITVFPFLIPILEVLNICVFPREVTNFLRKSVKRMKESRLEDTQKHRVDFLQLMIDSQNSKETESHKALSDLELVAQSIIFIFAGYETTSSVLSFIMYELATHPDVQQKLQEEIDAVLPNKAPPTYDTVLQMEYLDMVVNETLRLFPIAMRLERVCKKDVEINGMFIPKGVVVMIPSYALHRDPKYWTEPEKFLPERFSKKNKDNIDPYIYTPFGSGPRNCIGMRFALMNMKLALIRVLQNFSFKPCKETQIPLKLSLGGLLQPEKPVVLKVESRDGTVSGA

SMILES | bioavailability [1] | Activity (Mus musculus [2]) | CLint scaled at 1 µM [3] | Drug uptake (Mus musculus [4]) | solubility thermodynamic at 24 h [5] | inhibition (Mus musculus [6]) | Activity (Mus musculus [7]) | IC50 (Cytochrome P450 2C8) | CLint scaled at 1 µM [8] | IC50 (Cytochrome P450 3A4) | IC50 (Cytochrome P450 2C9) | bioavailability [9] | fraction unbound at 4 h, 10 µM [10] | Papp A→B at 1 h, 1 µM [11] | AUC(0-t) [12] | half-life [13] | IC50 (Cytochrome P450 2D6) | IC50 (Cytochrome P450 2B6) | Vd [14] | inhibition (Mus musculus [15]) | other results
CS(=O)(=O)c1ccc(Oc2cc(F)cc(C#N)c2)c2c1[C@H](O)C(F)(F)C2 | 40% | Non-Toxic | 5.4 mL/min/kg | Active | 59 µM (≈ 22.6 µg/mL) | Active | Non-Toxic | > 50 µM | 4.7 mL/min/kg | > 50 µM | 23 µM | 110% | 0.26 | 2.98 ×10⁻⁶ cm/s | 5.12 µM·h | 3.3 h | > 50 µM | > 50 µM | 7 L/kg | Active | Activity (Mus musculus [16]): Non-Toxic; Activity (786-0): Active; CLint scaled at 1 µM [17]: < 5 mL/min/kg; fraction unbound at 4 h, 10 µM [18]: 0.21; CLint scaled at 1 µM [19]: 22.6 mL/min/kg; fraction unbound at 4 h, 10 µM [20]: 0.29; AUC(0-t) [21]: 16.4 µM·h; clearance [22]: 29.2 mL/min/kg; half-life [23]: 3.3 h; fraction unbound at 4 h, 10 µM [24]: 0.25
N#Cc1cc(F)cc(Oc2ccc3c(c2C(F)F)[C@@H](O)C(F)(F)S3(=O)=O)c1 | 36% | Non-Toxic | < 4 mL/min/kg | Active | 126 µM (≈ 51.1 µg/mL) | Active | Non-Toxic | > 50 µM | < 3 mL/min/kg | 13.3 µM | 15.7 µM | 110% | 0.11 | 2.6 ×10⁻⁶ cm/s | 5.49 µM·h | 3.7 h | > 50 µM | > 50 µM | 9.5 L/kg | Active | Activity (Mus musculus [16]): Non-Toxic; Activity (786-0): Active; CLint scaled at 1 µM [17]: < 5 mL/min/kg; fraction unbound at 4 h, 10 µM [18]: 0.37; CLint scaled at 1 µM [19]: 9.1 mL/min/kg; fraction unbound at 4 h, 10 µM [20]: 0.15; AUC(0-t) [21]: 6.1 µM·h; clearance [22]: 70.6 mL/min/kg; half-life [23]: 6.5 h; fraction unbound at 4 h, 10 µM [24]: 0.18
